From patent US20260000652A1, “IMPEDING PLATINUM-BASED CHEMOTHERAPEUTIC INDUCED OTOTOXICITY USING A COLONY STIMULATING FACTOR 1 RECEPTOR INHIBITOR” (THE UNITED STATES OF AMERICA, AS REPRESENTED BY THE …, priority 2022, published 2026)
“Also recorded” adds a separate entry of the source.

What was measured:
[1] = tested on: cochlear macrophages; assay: Cochlear macrophage ablation, DAPI and CX3CR1-GFP staining of cochlear sections; type: in vivo, mouse; details: for ablation of cochlear macrophages: DAPI and CX3CR1-GFP staining of cochlea, saline- and cisplatin-treated mice, vs no pexidartinib
Source text: The CSF1R inhibitor can inhibit, directly and/or indirectly, macrophages, or microglia, or both. Inhibition and/or killing of macrophages and/or microglia can be referred to as “ablation.” The macrophages can comprise cochlear resident macrophages, or recruited macrophages, or both. Fractalkine receptor CX3CR1 is a regulator of macrophage function and can be utilized to label macrophages. The resident macrophages can comprise perivascular resident macrophage-like melanocytes (PVM/Ms). PVM/Ms can regulate the integrity of the blood labyrinth barrier (BLB), a barrier between the vasculature and the inner ear fluids (endolymph or perilymph). The BLB can control exchanges between the blood and fluids from intrastitial space in cochlea. The BLB can maintain the inner ear fluid ionic homeostasis. The BLB can restrict entry of most blood-borne (toxic) substances into inner ear tissues. The BLB can selectively pass ions, fluids, and nutrients into cochlea. The CSF1R inhibitor can affect, directly and/or indirectly, the blood labyrinth barrier (BLB) and one or more of its functions.
(§1) A clinically relevant mouse model of cisplatin-induced ototoxicity was developed and used to examine whether macrophages play a role in hearing loss in response to cisplatin. Pexidartinib is an inhibitor of the colony stimulating factor 1 receptor (CSF1R), which aids in the survival of microglia and cochlear resident macrophages.

[2] = tested on: outer hair cell function; assay: Distortion product otoacoustic emissions (DPOAE) in cisplatin-treated mice; type: in vivo, mouse; details: cisplatin plus pexidartinib vs cisplatin only; 16, 22, 32, 40 kHz
[3] = Mass spectrometry measurement of platinum content in microdissected inner ear tissues; type: in vivo, mouse; details: spiral ganglion neurons, organ of Corti, stria vascularis, utricle, saccule
[4] = Cisplatin-induced weight loss in mouse model of cisplatin ototoxicity; type: in vivo; details: cisplatin-treated mice with macrophage ablation
Source text: as §1

[5] = tested on: outer hair cells; assay: Outer hair cell survival, Myosin 7a staining and quantification of cochlear hair cells; type: in vivo, mouse; details: cisplatin mice co-treated with PLX3397, Myosin 7a staining, 16, 22.4, 32, 40 kHz regions
Experimental: Hearing sensitivity was assessed prior to pexidartinib/cisplatin administration and after the end of the third cycle of the treatment protocol using auditory brainstem responses (ABR) and distortion product otoacoustic emissions (DPOAE). […] Histology can be performed using MyosinVIla (turquoise).
The data are supportive of macrophage ablation being protective against cisplatin-induced hearing loss. […] Data and other information relevant to the experimental examples are depicted in the various figures of the drawings and summarized herein.

[6] = tested on: cisplatin-induced hearing loss; assay: Hearing sensitivity by auditory brainstem responses (ABR) in cisplatin-treated mice; type: in vivo, mouse; details: cisplatin plus pexidartinib vs cisplatin only, after end of third cycle

## N.N.[Cl][Pt][Cl] [cisplatin]
[1]; cisplatin vs control, whole cochlear section
  number of macrophages in the cochlea: reduced number of macrophages in the cochlea

## FC(F)(F)c1ccc(CNc2ccc(Cc3c[nH]c4ncc(Cl)cc34)cn2)cn1 [pexidartinib]
[2]
  OHC function (DPOAE amplitudes): protected from the loss of OHC function; also recorded: higher DPOAE amplitudes
[3]
  cisplatin entry into the inner ear (platinum content): reduces cisplatin entry into the inner ear; also recorded: reduced cisplatin entry to the inner ear
[4]
  cisplatin-induced weight loss: significantly reduced cisplatin-induced weight loss
[5]
  OHC survival: increased OHC survival; also recorded: protection of outer hair cells against cisplatin-induced hair cell loss
[5]; listed as PLX3397
  OHC survival: greater OHC survival
[1]
  ablation of cochlear macrophages: ablate macrophages; also recorded: effectively ablates cochlear macrophages; also recorded: ablation of macrophages
[1]; listed as PL3397
  ablation of cochlear macrophages: effectively ablates cochlear macrophages
[6]
  cisplatin-induced hearing loss (ABR threshold shifts): significantly reduced hearing loss
[6]; listed as PLX3397
  cisplatin-induced hearing loss (ABR threshold shifts): significantly reducing cisplatin-induced hearing loss
